Data from patent US20170073337A1, “DIHYDROTHIAZINE AND DIHYDROOXAZINE DERIVATIVES HAVING BACE1 INHIBITORY ACTIVITY” (Shionogi & Co., Ltd., priority 2014, published 2017).
Values after ≈ are worked out from the molar mass of the structure shown. Where two headings read alike, the source gives them in different places.

Assays:
Solubility test = format: physicochemical; conditions: for solubility kinetic at 1 h: kinetic from dmso stock; for solubility kinetic at 16 h: solubility in JP 2nd fluid B, 1% DMSO, *2: shaken for 1 hour at room temperature
Protocol: A 10 mmol/L solution of the compound was prepared with DMSO, and 2 μL of the compound of the present invention solution was added, respectively, to 198 μL of JP 1st fluid (water was added to 2.0 g of sodium chloride and 7.0 ml, of hydrochloric acid to reach 1000 mL) and JP 2nd fluid (See Table 4). The mixture was left standing for 16 hours at 25° C. or shaken for 1 hour at ruom temperature, and the mixture was vacuum-filtered. The […] was ten or one hundred-fold diluted with metbanol/water=1/1 (v/v) or MeCN/MeOH/H2O(=1/1/2), and the compound concent ration in the filtrate was measured with LC/MS or solid phase extraction (SPE)/MS by the absolute calibration method.

CYP1A2 = target: T1, CYP1A2 (Homo sapiens, UniProt P05177); assay: CYP inhibition test (CYP1A2); format: in vitro ADME; conditions: pooled human liver microsomes; 7-ethoxyresorufin O-deethylation
T1 construct: The commercially available pooled human liver microsomes are used as an enzyme resource; from tissue; host or cells: pooled human liver microsomes
T1 sequence (P05177 1-516): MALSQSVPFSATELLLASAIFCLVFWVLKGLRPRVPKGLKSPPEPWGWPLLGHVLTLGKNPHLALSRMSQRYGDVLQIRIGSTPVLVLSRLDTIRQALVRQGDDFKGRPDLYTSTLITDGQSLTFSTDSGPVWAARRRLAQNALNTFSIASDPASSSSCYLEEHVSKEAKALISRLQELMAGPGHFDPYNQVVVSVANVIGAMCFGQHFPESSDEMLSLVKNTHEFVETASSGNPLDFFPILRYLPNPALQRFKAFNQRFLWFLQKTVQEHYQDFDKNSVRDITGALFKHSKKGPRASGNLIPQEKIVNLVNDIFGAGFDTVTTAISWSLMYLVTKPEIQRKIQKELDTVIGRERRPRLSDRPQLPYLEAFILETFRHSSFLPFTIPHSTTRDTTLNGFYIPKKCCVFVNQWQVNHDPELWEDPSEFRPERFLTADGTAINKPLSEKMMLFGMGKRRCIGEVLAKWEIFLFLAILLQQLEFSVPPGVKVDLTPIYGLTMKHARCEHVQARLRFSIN
From the text: (§1) The CYP inhibition test is a test to assess the inhibitory effect of a compound of the present invention towards typical substrate metabolism reactions on CYP enzymes in human liver microsomes. The marker reactions on human main five CYP enzymes (CYP1A2, 2C9, 2C19, 2D6, and 3A4) are used as follows: 7-ethoxyresorufin O-deethylation (CYP1A2), tolbutamide methyl-hydroxylation (CYP2C9), mephenytoin 4′-hydroxylation (CYP2C19), dextromethorphan O-demethylation (CYP2D6), and terfenadine hydroxylation (CYP3A4). The commercially available pooled human liver microsomes are used as an enzyme resource.
(§2) The reaction conditions were as follows: substrate, 0.5 μmol/L ethoxyresorufin (CYP1A2), 100 μmol/L tolbutamide (CYP2C9), 50 μmol/L, S-mephenytoin (CYP2C19), 5 μmol/L dextromethorphan (CYP2D6), 1 μmol/L terfenadine (CYP3A4): reaction time, 15 minutes: reaction temperature, 37° C.; enzyme, pooled human liver microsomes 0.2 mg protein/mL; concentrations of the compound of the present invention, 1, 5, 10, 20 μmol/L (four points).
(§3) Five kinds of substrates, human liver microsomes, and a compound solution of the present invention in […] Hepes buffer were added to a 96-well plate at the composition as described above as a reaction solution. NADPH as a cofactor was added to this 96-well plate in order to initiate metabolism reactions. After the incubation at 37° C.for […], a methanol/acetonitrile=1/1 (v/v) solution was added to stop the reaction. After the centrifugation at 3000 rpm for 15 minutes, resorufin (CYP1A2 metabolite) in the supernatant was quantified by a fluorescent plate reader, and hydroxytolbutamide (CYP2C9 metabolite), 4′-hydroxymephenytoin (CYP2C19 metabolite), dextrorphan (CYP2D6 metabolite), and terfenadine alcohol metabolite (CYP3A4 metabolite) in the supernatant were quantified by LC/MS/MS.
(§4) The sample adding DMSO to a reaction system instead of compound of the present invention solution was adopted as a control (100%) because DMSO was used as a solvent to dissolve a compound of the present invention. Remaining activity (%) was calculated at each concentration of a compound of the present invention, and IC50 value was calculated by reverse presumption by a logistic model using a concentration and an inhibition rate.

CYP2C19 = target: T2, CYP2C19 (Homo sapiens, UniProt P33261); assay: CYP inhibition test (CYP2C19); format: in vitro ADME; conditions: pooled human liver microsomes; mephenytoin 4′-hydroxylation
T2 construct: The commercially available pooled human liver microsomes are used as an enzyme resource; from tissue; host or cells: pooled human liver microsomes
From the text: as §1, §2, §3, §4

Recombinant human BACE1 = target: T3, Recombinant human BACE1 (Homo sapiens, UniProt P56817); assay: Assay of BACE1 inhibitory activity: 384-well; format: biochemical; conditions: Assay format 384-well
T3 construct: purchased R&D Systems
Protocol: 5 μL of substrate peptide solution (Biotin-XSEVNLDAEFRHDSGC-Eu: X=ε-amino-n-capronic acid, Eu=Europium eryplate) was added to each well of 384-well plate (a black plate: Corning), and after addition of 0.1 μl of the compound of the present invention (DMSO solution) and 5 μl of Recombinant human BACE1 (R&D Systems), the reaction mixture was incubated at 25° C. for 2 hours. The substrate peptide was synthesized by reacting Cryptate TBPCOOH mono SMP (CIS bio international) with Biotin-XSEVNLDAEFRHDSGC (Peptide Institute, Inc.).
After the incubation for reaction, 10 μl of 8.0 μg/ml Streptavidin-XL665 (CIS bio International) dissolved in phosphate buffer (150 mmol/L K2HPO4-KH2PO4, pH 7.0, 0.008% Triton X-100, 0.8 mol/L KF) was added to each well and left stand at 25° C. for 30 minutes.

[1] = target: T4, human ether-a-go-go related gene (hERG) channel (Homo sapiens, UniProt Q12809); assay: hERG test; format: cell-based; conditions: % inhibition of IKr tail peak current at 3 uM; CHO cells expressing hERG
T4 construct: expressed in transfected cells; host or cells: CHO cells
From the text: For the purpose of assessing risk of an electrocardiogram QT interval prolongation, effects on delayed rectifier K+ current (IKr), which plays an important role in the ventricular repolarization process of the compound of the present invention, was studied using CHO cells expressing human ether-a-go-go related gene (hERG) channel.
A cell was retained at a membrane potential of […] by whole cell patch clamp method using an automated patch clamp system (QPatch:Sophion Bioscience A/S). After application of leak potential at −50 mV, IKr induced by depolarization pulse stimulation at +20 mV for 2 seconds and, further, repolarization pulse stimulation at −50 mV for 2 seconds was recorded.

CYP2C9 = target: T5, CYP2C9 (Homo sapiens, UniProt P11712); assay: CYP inhibition test (CYP2C9); format: in vitro ADME; conditions: pooled human liver microsomes; tolbutamide methyl-hydroxylation
T5 construct: The commercially available pooled human liver microsomes are used as an enzyme resource; from tissue; host or cells: pooled human liver microsomes
From the text: as §1, §2, §3, §4

[2] = system: Aβ production in neuroblastoma SH-SY5Y cells (SH/APPwt); assay: β-amyloid (Aβ) production inhibitory effect in cell: 384-well; format: cell-based; conditions: Homo sapiens, Assay format 384-well
Protocol: Neuroblastoma SH-SY5Y cells (SH/APPwt) with human wild-type β-APT excessively expressed therein were prepared at 4×10^5 cells/mL, and 50 μl portions thereof were inoculated into each well of a 384-well culture plate (Corning) added 0.5 μl of the test compound of the present invention (DMSO solution). The final DMSO concentration was 1%, and the amount of the cell culture was 50 μl. After the incubation was performed for 21 hours from the cell seeding, 5 μl of the culture supernatant was collected from each fraction. The amount of the Aβ in each fraction was measured.
The Aβ amount was measured as follows. 5 μl of a homogeneous time resolved fluoresrenee (HTRF) measurement reagent (Amyloid β1-40 peptide; CIS bio international) and 5 μl of the culture supernatant were put into a 384′well plate (a black plate: Corning) and mixed with each other, and then left standing overnight at 4° C. while the light was shielded. Then, the fluorescence intensity (620 nm and 665 nm) was measured with EnViston (Perkin Elmer life sciences).

Metabolic stability test = format: in vitro ADME; conditions: human liver microsomes, 37° C., 30 minutes, NADPH
Protocol: Using a commercially available pooled human liver microsomes, a compound of the present invention was reacted for a constant time, a remaining rate was calculated by comparing a reacted sample and an unreacted sample, thereby, a degree of metabolism in liver was assessed.
A reaction was performed (oxidative reaction) at 37° C. for 0 minute or 30 minutes in the presence of 1 mmol/L NADPH in 0.2 mL of a buffer (60 mmol/L Tris-HCl pH 7.4, 150 mmol/L potassium chloride, 10 mmol/L magnesium chloride) containing 0.5 mg protein/mL of human liver microsomes. After the reaction, 50 μL of the reaction solution was added to 100 μL of a methanol/acetonltrile=1/1 (v/v), mixed and centrifuged at 3000 rpm for 15 minutes. The compound of the present invention in the supernatant was quantified by LC/MS/MS or solid phase extraction (SPE)/MS, and a remaining amount of the compound of the present invention after the reaction area calculated, letting a compound amount at 0 minute reaction time to be 100%.

CYP3A4 = target: T6, CYP3A4 (Homo sapiens, UniProt P08684); assay: CYP inhibition test (CYP3A4); format: in vitro ADME; conditions: pooled human liver microsomes; terfenadine hydroxylation
T6 construct: The commercially available pooled human liver microsomes are used as an enzyme resource; from tissue; host or cells: pooled human liver microsomes
From the text: as §1, §2, §3, §4

CYP2D6 = target: T7, CYP2D6 (Homo sapiens, UniProt P10635); assay: CYP inhibition test (CYP2D6); format: in vitro ADME; conditions: pooled human liver microsomes; dextromethorphan O-demethylation
T7 construct: The commercially available pooled human liver microsomes are used as an enzyme resource; from tissue; host or cells: pooled human liver microsomes
From the text: as §1, §2, §3, §4

[3] = JP 1st fluid, pH 1.2, simulated gastric fluid, read-out: JP1
[4] = JP 2nd fluid B, pH 6.8, aqueous buffer, read-out: JP2_μM

T4 sequence (Q12809 whole entry): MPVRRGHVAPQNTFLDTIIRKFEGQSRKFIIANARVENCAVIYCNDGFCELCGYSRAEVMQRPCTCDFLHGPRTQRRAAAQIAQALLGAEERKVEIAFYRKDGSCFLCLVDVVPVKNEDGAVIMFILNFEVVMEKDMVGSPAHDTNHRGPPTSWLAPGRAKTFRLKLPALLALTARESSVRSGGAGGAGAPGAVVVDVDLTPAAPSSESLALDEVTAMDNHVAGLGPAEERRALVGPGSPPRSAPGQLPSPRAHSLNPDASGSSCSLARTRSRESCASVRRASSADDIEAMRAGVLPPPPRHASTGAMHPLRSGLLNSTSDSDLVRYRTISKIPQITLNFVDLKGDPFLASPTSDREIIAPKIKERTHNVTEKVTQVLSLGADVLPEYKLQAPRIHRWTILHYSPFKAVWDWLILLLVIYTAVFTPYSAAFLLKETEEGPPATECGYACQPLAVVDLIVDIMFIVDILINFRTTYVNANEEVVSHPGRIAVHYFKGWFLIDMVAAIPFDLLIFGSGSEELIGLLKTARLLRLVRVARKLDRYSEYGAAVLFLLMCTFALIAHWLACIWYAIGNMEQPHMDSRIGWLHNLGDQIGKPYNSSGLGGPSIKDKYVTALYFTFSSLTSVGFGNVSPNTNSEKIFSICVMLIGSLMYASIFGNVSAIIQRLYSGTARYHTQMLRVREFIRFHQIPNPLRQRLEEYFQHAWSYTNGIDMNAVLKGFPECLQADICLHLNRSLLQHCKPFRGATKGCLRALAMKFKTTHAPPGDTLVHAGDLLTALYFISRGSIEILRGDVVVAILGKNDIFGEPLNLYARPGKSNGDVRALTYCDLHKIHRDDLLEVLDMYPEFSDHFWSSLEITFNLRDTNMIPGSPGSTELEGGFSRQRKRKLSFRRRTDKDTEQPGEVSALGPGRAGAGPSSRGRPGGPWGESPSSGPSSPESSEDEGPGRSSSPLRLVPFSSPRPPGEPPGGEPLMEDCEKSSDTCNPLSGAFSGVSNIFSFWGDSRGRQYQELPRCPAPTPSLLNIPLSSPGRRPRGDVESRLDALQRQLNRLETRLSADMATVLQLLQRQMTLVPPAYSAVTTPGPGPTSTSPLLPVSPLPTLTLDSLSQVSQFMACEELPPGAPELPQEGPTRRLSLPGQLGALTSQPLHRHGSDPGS
T6 sequence (P08684 whole entry): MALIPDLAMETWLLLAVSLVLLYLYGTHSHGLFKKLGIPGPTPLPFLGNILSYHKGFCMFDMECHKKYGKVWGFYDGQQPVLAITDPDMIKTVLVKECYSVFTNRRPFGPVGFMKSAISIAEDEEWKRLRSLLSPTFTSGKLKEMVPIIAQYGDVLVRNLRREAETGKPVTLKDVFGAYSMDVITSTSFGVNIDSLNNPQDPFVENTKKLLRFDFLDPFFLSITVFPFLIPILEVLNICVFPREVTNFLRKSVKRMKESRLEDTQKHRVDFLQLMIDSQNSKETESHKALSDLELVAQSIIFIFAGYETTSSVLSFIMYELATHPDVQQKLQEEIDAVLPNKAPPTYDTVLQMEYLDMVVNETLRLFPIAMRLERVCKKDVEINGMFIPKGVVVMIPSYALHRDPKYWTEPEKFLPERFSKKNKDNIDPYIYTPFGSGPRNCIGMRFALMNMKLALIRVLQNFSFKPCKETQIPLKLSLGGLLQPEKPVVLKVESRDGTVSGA
T5 sequence (P11712 whole entry): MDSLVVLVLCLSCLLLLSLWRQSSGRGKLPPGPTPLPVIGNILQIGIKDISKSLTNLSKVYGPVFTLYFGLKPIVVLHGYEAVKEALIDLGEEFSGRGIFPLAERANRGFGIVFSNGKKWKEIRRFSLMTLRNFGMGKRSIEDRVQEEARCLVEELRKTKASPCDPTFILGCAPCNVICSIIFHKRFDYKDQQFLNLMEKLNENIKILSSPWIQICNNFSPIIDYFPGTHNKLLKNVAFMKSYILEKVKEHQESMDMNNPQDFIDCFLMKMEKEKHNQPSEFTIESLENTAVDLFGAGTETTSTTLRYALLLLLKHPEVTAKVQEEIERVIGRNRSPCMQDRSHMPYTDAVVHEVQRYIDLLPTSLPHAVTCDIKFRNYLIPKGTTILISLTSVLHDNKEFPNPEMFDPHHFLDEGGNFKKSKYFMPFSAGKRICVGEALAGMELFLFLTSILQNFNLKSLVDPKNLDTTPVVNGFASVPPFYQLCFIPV
T2 sequence (P33261 whole entry): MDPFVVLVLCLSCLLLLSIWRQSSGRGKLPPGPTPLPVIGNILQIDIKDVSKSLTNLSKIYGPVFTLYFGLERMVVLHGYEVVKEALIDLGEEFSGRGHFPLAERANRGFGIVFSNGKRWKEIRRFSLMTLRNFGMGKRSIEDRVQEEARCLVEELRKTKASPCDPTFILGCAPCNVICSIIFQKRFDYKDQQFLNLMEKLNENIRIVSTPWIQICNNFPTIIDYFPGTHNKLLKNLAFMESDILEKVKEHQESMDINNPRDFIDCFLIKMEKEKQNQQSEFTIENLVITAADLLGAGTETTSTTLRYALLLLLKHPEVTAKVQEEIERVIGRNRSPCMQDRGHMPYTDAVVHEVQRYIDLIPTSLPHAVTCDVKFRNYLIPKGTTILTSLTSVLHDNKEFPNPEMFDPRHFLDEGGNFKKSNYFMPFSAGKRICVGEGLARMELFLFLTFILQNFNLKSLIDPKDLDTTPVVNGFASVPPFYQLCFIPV
T3 sequence (P56817 46-501): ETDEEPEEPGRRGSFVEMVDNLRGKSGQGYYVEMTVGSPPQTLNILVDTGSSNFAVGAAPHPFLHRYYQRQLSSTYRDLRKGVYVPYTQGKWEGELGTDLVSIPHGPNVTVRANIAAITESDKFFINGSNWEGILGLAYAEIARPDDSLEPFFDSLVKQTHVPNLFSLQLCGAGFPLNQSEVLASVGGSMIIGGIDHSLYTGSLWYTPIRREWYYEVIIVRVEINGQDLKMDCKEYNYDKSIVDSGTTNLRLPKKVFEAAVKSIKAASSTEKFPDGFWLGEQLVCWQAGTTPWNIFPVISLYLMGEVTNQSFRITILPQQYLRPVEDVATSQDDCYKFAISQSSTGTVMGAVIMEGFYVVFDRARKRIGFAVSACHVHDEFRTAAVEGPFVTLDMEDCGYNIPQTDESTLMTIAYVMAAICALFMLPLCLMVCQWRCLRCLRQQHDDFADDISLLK
T7 sequence (P10635 whole entry): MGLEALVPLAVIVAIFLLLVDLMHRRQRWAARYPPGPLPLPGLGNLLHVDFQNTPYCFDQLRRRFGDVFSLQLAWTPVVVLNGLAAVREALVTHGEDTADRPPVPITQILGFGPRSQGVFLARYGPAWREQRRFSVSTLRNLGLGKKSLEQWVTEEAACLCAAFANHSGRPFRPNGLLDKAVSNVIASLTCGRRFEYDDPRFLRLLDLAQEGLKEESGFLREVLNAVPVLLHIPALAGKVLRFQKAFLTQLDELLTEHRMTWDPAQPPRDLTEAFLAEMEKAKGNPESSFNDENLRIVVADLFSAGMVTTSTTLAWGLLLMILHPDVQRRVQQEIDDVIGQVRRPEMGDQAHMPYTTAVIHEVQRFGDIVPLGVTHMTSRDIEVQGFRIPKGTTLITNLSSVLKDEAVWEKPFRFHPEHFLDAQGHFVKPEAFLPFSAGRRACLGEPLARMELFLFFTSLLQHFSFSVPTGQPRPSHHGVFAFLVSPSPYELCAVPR

Compound | solubility kinetic at 1 h (Solubility test; [3]) [µM] | solubility kinetic at 16 h (Solubility test; read-out: JP2_μM) [µM] | IC50 (CYP1A2) [nM] | IC50 (CYP2C19) [nM] | IC50 (Recombinant human BACE1) [nM] | hERG_3 uM_% [1] [%] | IC50 (CYP2C9) [nM] | IC50 [2] [nM] | remaining % (Metabolic stability test) [%] | IC50 (CYP3A4) [nM] | solubility kinetic at 1 h (Solubility test; [4]) [µM] | IC50 (CYP2D6) [nM]
C[C@]1(c2cc(NC(=O)c3ccc(OCF)cn3)ccc2F)N=C(N)SCC12CC(F)(F)C2 [Compound I-58] | > 50 | >50 | ≥ 20000 | ≥ 20000 | 13.7 | 58.6 | ≥ 20000 | 0.68 |  |  |  | 
C[C@]1(c2cc(NC(=O)c3ccc(F)cn3)ccc2F)N=C(N)SCC12CC(F)(F)C2 [Compound I-61] | > 50 | >50 | ≥ 20000 | ≥ 20000 | 15.4 |  | ≥ 20000 | 1.3 | 71.5 | ≥ 10000 |  | 
COCC(F)(F)[C@H]1OC(N)=N[C@](C)(c2cc(NC(=O)c3cnc(OC)cn3)ccc2F)[C@H]1F [Compound I-80] | > 50 | >50 | ≥ 20000 | ≥ 20000 | 35.5 | 8.9 | ≥ 10000 | 18 |  | ≥ 10000 |  | 
CCOc1cnc(C(=O)Nc2ccc(F)c([C@@]3(C)N=C(N)S[C@H](C)[C@@H]3F)c2)cn1 [Compound I-84] | > 50 |  | ≥ 20000 | ≥ 20000 | 12.9 | 28.8 |  | 2.3 |  |  | 49.4 (≈ 20.8 µg/mL) | 
COc1ccc(C(=O)Nc2ccc(F)c([C@@]3(C)N=C(N)O[C@H](C(F)(F)C4CC4)[C@@H]3F)c2)nn1 [Compound I-95] | > 50 | >50.0 | ≥ 20000 | ≥ 20000 | 23.5 |  | ≥ 10000 | 450 | 105 | ≥ 10000 |  | 
Cc1cc(C#N)cnc1C(=O)Nc1ccc(F)c([C@@]2(C)N=C(N)O[C@H](C3(F)CC3)[C@@H]2F)c1 [Compound I-99] | > 50 | >50.0 | ≥ 20000 | ≥ 20000 | 24.5 |  | ≥ 10000 | 0.99 | 89.4 | ≥ 20000 |  | ≥ 10000
C[C@@H]1SC(N)=N[C@](C)(c2cc(NC(=O)c3ccc(C#N)cn3)ccc2F)[C@@H]1F [Compound I-113] | > 50 |  | ≥ 20000 | ≥ 20000 | 164 |  | ≥ 20000 | 40 |  | ≥ 20000 | 48.6 (≈ 19.5 µg/mL) | ≥ 20000
